Patent US8088806B2 (Achillion Pharmaceuticals, Inc., priority 2005, dated 2012)

Test system: HCV replicon
Test: Replicon based assay of HCV replication inhibition (NPT ELISA)
Assay type: cell-based, Hepatitis C virus
Conditions: Hepatitis C virus, Huh-7, 72 h, Table I; Huh-7 HCV replicon-containing cells, three days; read-out: Activity
How it was run: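 NPT (neomycin phosphotransferase) content, proportional to replicon replication, quantified by capture ELISA on day four. Before that, replicon-bearing Huh-7 cells in G418-free screening medium were exposed three days at 37° C to compound, typically six doses from 10 to 0.03 micromolar, with equal DMSO across wells.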

| SMILES | EC50 |
| --- | --- |
| CCCCCOc1ccc(Nc2nc(-c3ccc(C(=O)O)cc3)cs2)cc1C(F)(F)F [compound 155, 4-(2-(3-(trifluoromethyl)-4-(pentyloxy)phenylamino)thiazol-4-yl)benzoic acid] | < 1 µM |
| Fc1cccc(-c2csc(Nc3cccc(OCc4ccccc4)c3)n2)c1 [compound 193, N-(3-(benzyloxy)phenyl)-4-(3-fluorophenyl)thiazol-2-amine] | < 1 µM |
| CCCCCOc1ccc(Nc2nc(-c3ccc(F)cc3)cs2)cc1 [compound 21, 4-(4-fluorophenyl)-N-(4-(pentyloxy)phenyl)thiazol-2-amine] | < 1 µM |
| Fc1ccc(Nc2nc(C(F)(F)F)c(-c3cccc(Cl)c3)s2)cc1 [compound 118, 5-(3-chlorophenyl)-4-(trifluoromethyl)-N-(4-fluorophenyl)thiazol-2-amine] | > 10 µM |
| CN(C(=O)c1nc(-c2cccnc2)cs1)c1ccc(Cl)c(Cl)c1 [compound 124, N-(3,4-dichlorophenyl)-N-methyl-4-(pyridin-3-yl)thiazole-2-carboxamide] | > 10 µM |
| Fc1ccc2nc(Nc3nc(-c4cccnc4)cs3)sc2c1 [compound 206, 6-fluoro-N-(4-(pyridin-3-yl)thiazol-2-yl)benzo[d]thiazol-2-amine] | 1 to 10 µM |
| c1cncc(-c2csc(Nc3ccc(-n4ccnc4)cc3)n2)c1 [compound 103, N-(4-(1H-imidazol-1-yl)phenyl)-4-(pyridin-3-yl)thiazol-2-amine] | > 10 µM |
| COc1cccc2sc(Nc3nc(-c4ccncc4)cs3)nc12 [compound 205, 4-methoxy-N-(4-(pyridin-4-yl)thiazol-2-yl)benzo[d]thiazol-2-amine] | < 1 µM |

Same assay, conditions: Hepatitis C virus, Huh-7, 72 h, Table III; Huh-7 HCV replicon-containing cells, three days; read-out: Activity

| SMILES | EC50 |
| --- | --- |
| CCCCCCCCOc1ccc(Nc2nc(-c3ccc(N)nn3)cs2)cc1C(F)(F)F [compound 670, 6-(2-(3-(trifluoromethyl)-4-(octyloxy)phenylamino)thiazol-4-yl)pyridazin-3-amine] | < 1 µM |
| CCCCCCCCOc1ccc(Nc2nc(-c3cccc(OC)n3)cs2)cc1C(F)(F)F [compound 705, N-(3-(trifluoromethyl)-4-(octyloxy)phenyl)-4-(6-methoxypyridin-2-yl)thiazol-2-amine] | < 1 µM |
| CCCC(CCC)Oc1ccc(Nc2nc(-c3cccnc3)cs2)cc1C(F)(F)F [compound 680, N-(3-(trifluoromethyl)-4-(heptan-4-yloxy)phenyl)-4-(pyridin-3-yl)thiazol-2-amine] | < 1 µM |
| CCCCCCCCOc1cccc(Nc2nc(-c3cccnc3)cs2)c1 [compound 683, N-(3-(octyloxy)phenyl)-4-(pyridin-3-yl)thiazol-2-amine] | < 1 µM |
| CCCCCCCCOc1ccc(Nc2nc(-c3ccc(CCO)cc3)cs2)cc1C(F)(F)F [compound 666, 2-(4-(2-(3-(trifluoromethyl)-4-(octyloxy)phenylamino)thiazol-4-yl)phenyl)ethanol] | < 1 µM |
| CCCCCCCCOc1ccc(Nc2nc(-c3cncn3C)cs2)cc1C(F)(F)F [compound 663, N-(3-(trifluoromethyl)-4-(octyloxy)phenyl)-4-(1-methyl-1H-imidazol-5-yl)thiazol-2-amine] | < 1 µM |
| CCCCCCCc1ccc(Nc2nc(-c3ccc(O)c(C(N)=O)c3)cs2)cc1 [compound 557, 5-(2-(4-heptylphenylamino)thiazol-4-yl)-2-hydroxybenzamide] | < 1 µM |
| CCCCCCCCOc1ccc(Nc2nc(-c3cnc(NC(C)=O)c(C)c3)cs2)cc1C(F)(F)F [compound 686, N-(5-(2-(3-(trifluoromethyl)-4-(octyloxy)phenylamino)thiazol-4-yl)-3-methylpyridin-2-yl)acetamide] | < 1 µM |
| CCCCCCCCc1ccc(Nc2nc(-c3ccc(O)c(O)c3)cs2)cc1 [compound 547, 4-(2-(4-octylphenylamino)thiazol-4-yl)benzene-1,2-diol] | < 1 µM |
| CCCCCN(C)c1ccc(Nc2nc(Cc3ccc(OC)cc3)cs2)cc1C(F)(F)F [compound 643, N^4-(4-(4-methoxybenzyl)thiazol-2-yl)-2-(trifluoromethyl)-N^1-methyl-N^1-pentylbenzene-1,4-diamine] | > 10 µM |
| CCCC/C=C\CCOc1ccc(Nc2nc(-c3ccc(F)cc3)cs2)cc1C(F)(F)F [compound 533, N-(4-((Z)-oct-3-enyloxy)-3-(trifluoromethyl)phenyl)-4-(4-fluorophenyl)thiazol-2-amine] | < 1 µM |
| CCCCCCCCOc1ccc(Nc2nc(-c3cncc(C(N)=O)c3)cs2)cc1 [compound 653, 5-(2-(4-(octyloxy)phenylamino)thiazol 4-yl)pyridine-3-carboxamide] | < 1 µM |
| CCCCCCC(C)Oc1ccc(Nc2nc(-c3cccnc3)cs2)cc1C(F)(F)F (centres unmarked) [compound 675, N-(3-(trifluoromethyl)-4-(octan-2-yloxy)phenyl)-4-(pyridin-3-yl)thiazol-2-amine] | < 1 µM |
| CCCCCCCc1nc2cc(Nc3nc(-c4cccnc4)cs3)ccc2o1 [compound 716, 2-heptyl-N-(4-(pyridin-3-yl)thiazol-2-yl)benzo[d]oxazol-5-amine] | < 1 µM |
| O=C(c1ccc(Nc2nc(-c3ccc(F)cc3)cs2)cc1C(F)(F)F)N1CCC2CCCCC2C1 (centres unmarked) [compound 699, (4-(4-(4-fluorophenyl)thiazol-2-ylamino)-2-(trifluoromethyl)phenyl)(octahy-droisoquinolin-2(1H)-yl)methanone] | > 10 µM |

Same assay, conditions: Hepatitis C virus, replicon based assay of HCV replication inhibition; Table II; read-out: Activity

| SMILES | EC50 |
| --- | --- |
| CCCCCCCCOc1ccc(Nc2nc(CN3CCN(C(=O)OC(C)(C)C)CC3)cs2)cc1 [compound 308, tert-butyl 4-((2-(4-(octyloxy)phenylamino)thia-zol-4-yl)methyl)piperazine-1-carboxylate] | 1 to 10 µM |
| Cc1sc(Nc2cccc(C(F)(F)F)c2)nc1-c1ccc(CC(=O)O)cc1 [compound 343, 2-(4-(5-methyl-2-(3-(trifluoromethyl)phenylamino)thiazol-4-yl)phenyl)acetic acid] | > 10 µM |
| CCCCCCCOc1ccc(Nc2nc(-c3cccc(C(=O)O)c3)cs2)cc1 [compound 396, 3-(2-(4-(heptyloxy)phenylamino)thia-zol-4-yl)benzoic acid] | < 1 µM |
| CCCCCCCOc1ccc(Nc2nc(-c3ccc(Br)cc3)cs2)cc1 [compound 394, 4-(4-bromophenyl)-N-(4-(heptyloxy)phenyl)thiazol-2-amine] | < 1 µM |
| CCCCCOc1ccc(Nc2nc(-c3nc4ccccc4s3)cs2)cc1C(F)(F)F [compound 412, 4-(benzo[d]thiazol-2-yl)-N-(3-(trifluoromethyl)-4-(pentyloxy)phenyl)thiazol-2-amine] | < 1 µM |
| CCCCCCCCOc1ccc(Nc2nc(-c3ccncc3)cs2)cc1 [compound 416, N-(4-(octyloxy)phenyl)-4-(pyridin-4-yl)thiazol-2-amine] | < 1 µM |
| COc1ccc(-c2nc(Nc3cccc(C(F)(F)F)c3)sc2-c2ccc(OC)cc2)cc1 [compound 333, 4,5-bis(4-methoxyphenyl)-N-(3-(trifluoromethyl)phenyl)thia-zol-2-amine] | 1 to 10 µM |
| CCCCCCCCOc1ccc(Nc2nc(-c3ccc(C)nc3)cs2)cc1 [compound 370, 4-(6-methylpyridin-3-yl)-N-(4-(octyloxy)phenyl)thiazol-2-amine] | < 1 µM |
| COc1ccc(-c2csc(Nc3ccc(OCC4CC4)c(C(F)(F)F)c3)n2)cc1 [compound 250, N-(4-(cyclopropylmethoxy)-3-(trifluoromethyl)phenyl)-4-(4-methoxyphenyl)thiazol-2-amine] | < 1 µM |
| CCCCCOc1ccc(Nc2nc(CN3CCCC(C(=O)O)C3)cs2)cc1C(F)(F)F (centres unmarked) [compound 275, 1-((2-(4-(pentyloxy)-3-(trifluoromethyl)phenyl-amino)thiazol-4-yl)methyl)piperidin-3-carboxylic acid] | < 1 µM |

Same assay, conditions: Hepatitis C virus, replicon based assay of HCV replication inhibition; Table IV; read-out: Activity

| SMILES | EC50 |
| --- | --- |
| CCCCCCCCOc1ccc(Nc2nc(-c3csc(C)n3)cs2)cc1C(F)(F)F [compound 915, N-(3-(trifluoromethyl)-4-(octyloxy)phenyl)-4-(2-methylthiazol-4-yl)thiazol-2-amine] | < 1 µM |
| CCCCCCCCS(=O)(=O)c1ccc(Nc2nc(-c3cccnc3)cs2)cc1C(F)(F)F [compound 952, N-(3-(trifluoromethyl)-4-(octylsulfonyl)phenyl)-4-(pyridin-3-yl)thiazol-2-amine] | < 1 µM |
| COc1ncc(-c2csc(Nc3ccc(OCCCC4CCCC4)c(C(F)(F)F)c3)n2)cn1 [compound 803, N-(4-(3-cyclopentylpropoxy)-3-(trifluoromethyl)phenyl)-4-(2-methoxypyrimidin-5-yl)thiazol-2-amine] | < 1 µM |
| c1cncc(-c2csc(Nc3cc(-c4cccs4)n[nH]3)n2)c1 [compound 746, N-(4-(pyridin-3-yl)thiazol-2-yl)-3-(thiophen-2-yl)-1H-pyrazol-5-amine] | > 10 µM |
| CCOC(=O)Cc1ccc(-c2csc(Nc3ccc(OCCCOc4ccccc4)cc3)n2)s1 [compound 931, ethyl 2-(5-(2-(4-(3-phenoxypropoxy)phenylamino)thiazol-4-yl)thiophen-2-yl)acetate] | 1 to 10 µM |
| Clc1ccc(Oc2ccc(Nc3nc(-c4cccnc4)cs3)cc2)cc1 [compound 896, N-(4-(4-chlorophenoxy)phenyl)-4-(pyridin-3-yl)thiazol-2-amine] | < 1 µM |
| CCOC(=O)Cc1ccc(-c2csc(Nc3ccc(OCCSc4ccccc4)c(C(F)(F)F)c3)n2)s1 [compound 934, ethyl 2-(5-(2-(4-(2-(phenylthio)ethoxy)-3-(trifluoromethyl)phenylamino)thiazol-4-yl)thiophen-2-yl)acetate] | 1 to 10 µM |
| FC(F)(F)c1cc(Nc2nc(-c3cccnc3)cs2)ccc1OCCCc1ccco1 [compound 860, N-(4-(3-(furan-2-yl)propoxy)-3-(trifluoromethyl)phenyl)-4-(pyridin-3-yl)thiazol-2-amine] | < 1 µM |
